# Source: article PMC6994497, “Structural basis for Glycan-receptor binding by mumps virus hemagglutinin-neuraminidase” (Scientific Reports, 2020)
# Target: T1, MuV-HN (Mumps orthorubulavirus, UniProt Q9WAF5)
# T1 construct: pHLsec N-terminal secretion signal, C-terminal His6 tag; secreted from HEK293S GnTI(-) cells; Ni-NTA and size exclusion
# Experiment: STD NMR
# Assay type: binding
# Details: deuterated phosphate buffer pH 7.4; reaction mixture after hydrolysis of 1, also free reducing sialic acid
# T1 sequence (Q9WAF5 96-582): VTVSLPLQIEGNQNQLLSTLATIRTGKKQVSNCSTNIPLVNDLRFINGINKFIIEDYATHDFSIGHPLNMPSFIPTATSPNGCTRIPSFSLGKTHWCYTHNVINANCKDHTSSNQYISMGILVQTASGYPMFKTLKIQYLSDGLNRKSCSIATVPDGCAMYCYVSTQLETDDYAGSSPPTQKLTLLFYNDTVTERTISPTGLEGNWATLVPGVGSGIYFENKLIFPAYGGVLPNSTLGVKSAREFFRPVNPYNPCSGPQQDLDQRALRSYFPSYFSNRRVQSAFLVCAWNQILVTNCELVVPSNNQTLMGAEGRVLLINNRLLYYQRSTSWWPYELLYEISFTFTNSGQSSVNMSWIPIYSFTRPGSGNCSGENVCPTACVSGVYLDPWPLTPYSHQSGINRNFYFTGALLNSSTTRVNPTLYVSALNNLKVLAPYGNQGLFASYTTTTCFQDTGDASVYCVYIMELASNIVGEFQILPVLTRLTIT
smiles,measurement,value
CC(=O)N[C@H]1[C@H]([C@H](O)[C@H](O)CO)OC(O)(C(=O)O)C[C@@H]1O (stereo partly shown) [reducing Sia],STD NMR,the protein was able to bind the reducing sialic acid produced during the hydrolysis reaction
